For experiment [1], the target named is T1, Acetylcholinesterase (Electrophorus electricus, UniProt O42275).
Description: Inhibition of electric eel AChE pre-incubated for 3 mins before acetylthiocholine substrate addition by Ellman's reagent based spectrophotometry
The target of a further experiment is Cholinesterase (Equus caballus, UniProt P81908).
The target in experiment [2] is T1, Acetylcholinesterase. This is another data set of the same source.
Description: Inhibition of electric eel AChE pre-incubated for 3 mins before acetylthiocholine substrate addition by Lineweaver-Burk plot

Chain of Cholinesterase (P81908 whole entry): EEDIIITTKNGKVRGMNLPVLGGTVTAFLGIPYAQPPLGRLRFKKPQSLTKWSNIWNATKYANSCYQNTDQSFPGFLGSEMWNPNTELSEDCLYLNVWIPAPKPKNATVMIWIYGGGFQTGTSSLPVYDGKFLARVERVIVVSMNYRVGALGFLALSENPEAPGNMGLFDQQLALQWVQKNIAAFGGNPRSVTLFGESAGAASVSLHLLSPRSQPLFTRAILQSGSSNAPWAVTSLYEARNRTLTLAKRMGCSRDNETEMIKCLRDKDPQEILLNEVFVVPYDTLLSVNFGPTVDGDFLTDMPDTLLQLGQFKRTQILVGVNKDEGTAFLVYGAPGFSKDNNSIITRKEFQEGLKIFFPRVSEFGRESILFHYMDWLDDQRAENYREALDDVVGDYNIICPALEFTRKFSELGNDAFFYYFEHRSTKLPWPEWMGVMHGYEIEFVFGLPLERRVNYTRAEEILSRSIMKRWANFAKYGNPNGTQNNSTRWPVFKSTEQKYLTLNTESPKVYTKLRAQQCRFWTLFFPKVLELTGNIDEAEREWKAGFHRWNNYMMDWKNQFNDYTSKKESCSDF
T1 sequence (O42275 whole entry): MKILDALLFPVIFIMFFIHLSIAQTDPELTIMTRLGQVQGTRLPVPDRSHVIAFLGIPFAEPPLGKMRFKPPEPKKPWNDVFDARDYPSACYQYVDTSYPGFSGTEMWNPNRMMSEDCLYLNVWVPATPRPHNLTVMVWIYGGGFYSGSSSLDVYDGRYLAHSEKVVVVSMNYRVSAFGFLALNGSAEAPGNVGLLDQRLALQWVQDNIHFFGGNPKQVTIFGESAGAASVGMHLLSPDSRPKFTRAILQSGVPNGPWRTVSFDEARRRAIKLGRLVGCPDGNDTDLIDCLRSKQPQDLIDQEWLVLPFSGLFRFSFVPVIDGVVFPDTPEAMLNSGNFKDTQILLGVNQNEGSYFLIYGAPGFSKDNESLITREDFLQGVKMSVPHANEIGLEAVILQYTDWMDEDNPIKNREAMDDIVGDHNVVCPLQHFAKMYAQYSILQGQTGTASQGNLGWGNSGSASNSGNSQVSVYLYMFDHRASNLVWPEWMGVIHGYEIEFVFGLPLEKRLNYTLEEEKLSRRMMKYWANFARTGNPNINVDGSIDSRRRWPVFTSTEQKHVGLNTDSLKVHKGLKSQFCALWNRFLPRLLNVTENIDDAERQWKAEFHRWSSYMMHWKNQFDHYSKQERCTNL

With `O=C1/C(=C/c2ccc(OCCN3CCCCC3)cc2)COc2cc(OCc3ccccc3)ccc21`, the IC50 – broadly, the midpoint of a concentration-inhibition curve – on Acetylcholinesterase [1] is 0.207 µM; against Cholinesterase it was 2.58 µM.

`O=C1/C(=C/c2ccc(OCCCN3CCCC3)cc2)COc2cc(OCc3ccccc3)ccc21`: the IC50 came to 3.5 µM on Acetylcholinesterase [1] and 49 µM against Cholinesterase.

Regarding `O=C1/C(=C/c2ccc(OCCCN3CCOCC3)cc2)COc2cc(O)ccc21`, at Acetylcholinesterase [1], the IC50 is 158 µM.

In the case of `O=C1/C(=C/c2ccc(OCCN3CCCCC3)cc2)COc2cc(O)ccc21`, the IC50 turned out to be 0.192 µM at Acetylcholinesterase [1] and 2.16 µM at Cholinesterase.

Turning to `O=C1/C(=C/c2ccc(OCCCN3CCCCC3)cc2)COc2cc(OCc3ccccc3)ccc21`, the IC50 against Acetylcholinesterase [1] was determined as 2.7 µM; against Cholinesterase it was 32.4 µM.

Turning to `COc1ccc2c(c1)OC/C(=C\c1ccc(OCCCN3CCCCC3)cc1)C2=O`, the IC50 against Acetylcholinesterase [1] was 3.29 µM; on Cholinesterase, 26.3 µM.

As to `CCOc1ccc2c(c1)OC/C(=C\c1ccc(OCCCN3CCOCC3)cc1)C2=O`, the IC50 against Acetylcholinesterase [1] came out at 6.84 µM; against Cholinesterase it was 28.7 µM.

Turning to `CCOc1ccc2c(c1)OC/C(=C\c1ccc(OCCN3CCOCC3)cc1)C2=O`, the IC50 on Acetylcholinesterase [1] was 1 µM; against Cholinesterase, 10.2 µM.

For `COc1ccc2c(c1)OC/C(=C\c1ccc(OCCCN3CCCC3)cc1)C2=O`, the IC50 on Acetylcholinesterase [1] came out at 1.1 µM; at Cholinesterase, 6.85 µM.

`CCOc1ccc2c(c1)OC/C(=C\c1ccc(OCCCN3CCCCC3)cc1)C2=O`: the IC50 at Acetylcholinesterase [1] is 0.562 µM; on Cholinesterase, 3.1 µM.

As to `O=C1/C(=C/c2ccc(OCCCN3CCOCC3)cc2)COc2cc(OCc3ccccc3)ccc21`, at Acetylcholinesterase [1], half-maximal inhibition (IC50) required 50 µM.

With `O=C1/C(=C/c2ccc(OCCN3CCOCC3)cc2)COc2cc(O)ccc21`, the IC50 against Acetylcholinesterase [1] stood at 8.16 µM; at Cholinesterase, 96 µM.

In the case of `COc1ccc2c(c1)OC/C(=C\c1ccc(OCCN3CCCCC3)cc1)C2=O`, the IC50 against Acetylcholinesterase [1] came to 0.173 µM; against Cholinesterase it was 8.2 µM.

In the case of `COc1ccc2c(c1)OC/C(=C\c1ccc(OCCN3CCOCC3)cc1)C2=O`, the half-inhibitory concentration (IC50) at Acetylcholinesterase [1] stood at 1.9 µM; against Cholinesterase, 11.6 µM.

Regarding `O=C1/C(=C/c2ccc(OCCN3CCOCC3)cc2)COc2cc(OCc3ccccc3)ccc21`, the values for the IC50 at Acetylcholinesterase [1] and on Cholinesterase were 6.44 µM and 83.7 µM, respectively.

With `CCOc1ccc2c(c1)OC/C(=C\c1ccc(OCCN3CCCCC3)cc1)C2=O`, on Acetylcholinesterase [2], the Ki (in general, the dissociation constant of the complex between target and ligand, obtained from inhibition or displacement) turned out to be 0.27 µM. The IC50 was 0.122 µM against Acetylcholinesterase [1] and 0.854 µM against Cholinesterase.

Consider `COc1ccc2c(c1)OC/C(=C\c1ccc(OCCCN3CCOCC3)cc1)C2=O`, for which the IC50 at Acetylcholinesterase [1] was determined as 13.9 µM; at Cholinesterase it was 101 µM.

As for `O=C1/C(=C/c2ccc(OCCCN3CCCCC3)cc2)COc2cc(O)ccc21`, the IC50 was 2.38 µM on Acetylcholinesterase [1] and 27.4 µM against Cholinesterase.

Values taken from ChEMBL document CHEMBL3414493, “Design, synthesis and anticholinesterase activity of novel benzylidenechroman-4-ones bearing cyclic amine side chain” (Eur J Med Chem, 2015).
